The text below walks through data of US6706664B1, “Benzoxazole compounds, process for the preparation thereof and herbicides” (UBE Industries, Ltd., priority 1999, dated 2004).

Common to all, as to design: key: 0: normal development; 1: Less damaged; 2: Slightly damaged; 3: Moderately damaged; 4: Severely damaged; 5: All killed
In assay [1] the test system is young rice plant. The experiment in a line: Herbicidal test for paddy field. The settings on record: paddy field pot, 500 g/ha dropwise at 1.5 leaf stage of barnyardgrass, 3 weeks, rank vs non-treated. Type of assay: in vivo. The procedure, abridged:
(§1)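 Ube alluvial soil in pots flooded to 3 cm water depth, sown with seeds or tubers. Wettable powder diluted in water with 0.05% surfactant was dripped onto the water at 500 g/ha when barnyardgrass reached the 1.5-leaf stage. After 3 weeks in a glasshouse at an average of 25° C, damage was scored 0 (normal) to 5 (all killed) against untreated pots.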

For assay [2], the system named is barnyardgrass. The experiment in a line: Herbicidal test for paddy field. In kind it is in vivo, Echinochloa crusgalli. The settings on record: paddy field pot, 500 g/ha dropwise at 1.5 leaf stage of barnyardgrass, 3 weeks, rank vs non-treated. The procedure, abridged:
as §1

Assay [3] has as its system bulrush. The assay can be described thus: Herbicidal test for paddy field. In kind it is in vivo, Scrips juncoides. The settings on record: paddy field pot, 500 g/ha dropwise at 1.5 leaf stage of barnyardgrass, 3 weeks, rank vs non-treated. In outline: as §1
Assay [4] concerns monochoria. The experiment in a line: Herbicidal test for paddy field. Type of assay: in vivo, Monochoria vaginalis. The settings on record: paddy field pot, 500 g/ha dropwise at 1.5 leaf stage of barnyardgrass, 3 weeks, rank vs non-treated. In outline: as §1
For assay [5], the system named is blackgrass. The experiment in a line: Soil treatment test for upland field. In kind it is in vivo, Alopecurus aegualis. The settings on record: 500 g/ha, glass house 25° C., 3 weeks. The procedure, abridged:
(§2)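 Seeds planted in Wagner pots of Ube soil (alluvial) and covered. Wettable powder diluted in 0.05% surfactant water, sprayed uniformly onto soil at 500 g/ha effective rate. Grown 3 weeks, glasshouse, mean 25° C, then damage rated visually 0–5.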

Assay [6] relates to common lambsquartes. The experiment in a line: Soil treatment test for upland field. Type of assay: in vivo, Chenopodium album. The settings on record: 500 g/ha, glass house 25° C., 3 weeks. The procedure, abridged: as §2
Assay [7] concerns velvetleaf. The assay can be described thus: Soil treatment test for upland field. Type of assay: in vivo, Abutilon theophrasti. The settings on record: 500 g/ha, glass house 25° C., 3 weeks. In outline:
as §2

Assay [8] has as its system cotton. The experiment in a line: Foliar spread test for upland field. Type of assay: in vivo. The settings on record: foliar spray 500 ppm, 3 weeks, rank vs non-treated. The procedure, abridged:
(§3)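 Two-week-old glasshouse seedlings on volcanic ash soil were treated by foliar spray at 500 ppm, with 0.5% surfactant in the diluent. Effects were graded visually after three weeks, from 0 for no injury to 5 for complete kill.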

In assay [9] the test system is soybean. The assay can be described thus: Foliar spread test for upland field. In kind it is in vivo. The settings on record: foliar spray 500 ppm, 3 weeks, rank vs non-treated. In outline: as §3
For assay [10], the system named is barnyardgrass. The experiment in a line: Foliar spread test for upland field. Type of assay: in vivo, Echinochloa crusgalli. The settings on record: foliar spray 500 ppm, 3 weeks, rank vs non-treated. The procedure, abridged:
(§4)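 Post-emergence foliar spray, 500 ppm (wettable powder in water + 0.5% surfactant), on ~2-week-old plants grown in volcanic ash soil; glasshouse, avg 25° C, 3 wk; visual damage score 0–5.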

In assay [11] the test system is blackgrass. The experiment in a line: Foliar spread test for upland field. In kind it is in vivo, Alopecurus aegualis. The settings on record: foliar spray 500 ppm, 3 weeks, rank vs non-treated. In outline:
as §4

The subject of assay [12] is velvetleaf. The assay can be described thus: Foliar spread test for upland field. Type of assay: in vivo, Abutilon theophrasti. The settings on record: foliar spray 500 ppm, 3 weeks, rank vs non-treated. The procedure, abridged:
as §4

The subject of assay [13] is flat sedge. The assay can be described thus: Herbicidal test for paddy field. In kind it is in vivo, Cyperus serotinus. The settings on record: paddy field pot, 500 g/ha dropwise at 1.5 leaf stage of barnyardgrass, 3 weeks, rank vs non-treated. In outline: as §1

For `CCC(Oc1cccc(C(F)(F)F)c1)c1nc2cc(Cl)c(C)cc2o1` (centres unmarked) [Compound 339, 1-(5-chloro-6-methylbenzoxazol-2-yl)-1-(3-(trifluoromethyl)phenoxy)propane], the “Effect Young rice plant” value in [1] is 1. In addition, the “Effect Barnyardgrass” value in assay [2] was 4. Moreover, in assay [3], the “Effect Bulrush” value turned out to be 4. Also, in assay [4], the “Effect Monochoria” value is on record as 5. The results for the “Effects Blackgrass” value in [5] and in assay [11] were 3 and 2, respectively. For the same compound, the “Effects Common lambsquarters” value in [6] is on record as 4. Moreover, the “Effects Velvetleaf” value in assay [7] is 4; in assay [12], 2. Besides, the “Effects Cotton” value in [8] is listed as 3. Also, the “Effects Soybean” value in assay [9] was 3. The “Effects Barnyardgrass” value in [10] worked out at 2.

Take `CCC(Oc1ccc(F)c(C(F)(F)F)c1)c1nc2cc(Cl)ccc2o1` (centres unmarked) [Compound 139]: in assay [1], the “Effect Young rice plant” value amounted to 2. In assay [2], the “Effect Barnyardgrass” value is reported as 5. Besides, the “Effect Bulrush” value in assay [3] was 5. For the same compound, in assay [4], the “Effect Monochoria” value is 5. For the same compound, the “Effects Blackgrass” value was found to be 5 in assay [5] and 2 in assay [11]. Moreover, the “Effects Common lambsquarters” value in assay [6] is listed as 4. Also, the “Effects Velvetleaf” value in [7] turned out to be 5; in [12], 3. Also, the “Effects Cotton” value in [8] stood at 3. For the same compound, the “Effects Soybean” value in assay [9] was determined as 5. The “Effects Barnyardgrass” value in assay [10] is 2.

Consider `CCCC(Oc1ccc(F)c(C(F)(F)F)c1)c1nc2cc(C#N)c(Cl)cc2o1` (centres unmarked) [Compound 533], for which the “Effect Young rice plant” value in [1] stood at 2. The “Effect Barnyardgrass” value in [2] stood at 5. Also, the “Effect Flat sedge” value in assay [13] stood at 2. Besides, the “Effect Monochoria” value in [4] came to 4. Besides, the entries for the “Effects Blackgrass” value in [5] and in assay [11] were 4 and 3, respectively. In [6], the “Effects Common lambsquarters” value was found to be 5. For the same compound, the “Effects Velvetleaf” value in assay [7] turned out to be 5; in [12] it was 2. The “Effects Barnyardgrass” value in [10] is on record as 2.

As for `CCC(Oc1cccc(C(F)(F)F)c1)c1nc2cc(C#N)c(Cl)cc2o1` (centres unmarked) [Compound 529], the “Effect Barnyardgrass” value in assay [2] came out at 5. Besides, the “Effect Bulrush” value in [3] is 5. Besides, the “Effect Flat sedge” value in assay [13] is recorded as 4. The “Effect Monochoria” value in [4] was 5. In addition, the figures for the “Effects Blackgrass” value in assay [5] and in assay [11] were 5 and 4, respectively. In addition, in assay [6], the “Effects Common lambsquarters” value is 5. Moreover, the “Effects Velvetleaf” value in assay [7] stood at 5; in [12], 3. Further, the “Effects Barnyardgrass” value in assay [10] was found to be 3.

For the compound `CCCC(Oc1cccc(C(F)(F)F)c1)c1nc2cc(C#N)c(C#N)cc2o1` (centres unmarked) [Compound 317], the “Effect Young rice plant” value in assay [1] is 1. Also, in [2], the “Effect Barnyardgrass” value is recorded as 3. Moreover, the “Effect Bulrush” value in assay [3] amounted to 3. Also, the “Effect Flat sedge” value in [13] was 5. For the same compound, the “Effect Monochoria” value in [4] came out at 5. The “Effects Blackgrass” value stood at 5 in assay [5] and 2 in assay [11]. In addition, the “Effects Common lambsquarters” value in [6] is on record as 5. In addition, the “Effects Velvetleaf” value in assay [7] amounted to 5; in assay [12], 3.

As to `CCCC(Oc1cccc(C(F)(F)F)c1)c1nc2cc(C(F)(F)F)ccc2o1` (centres unmarked) [Compound 200], the “Effect Young rice plant” value in [1] was found to be 0. Further, the “Effect Barnyardgrass” value in assay [2] turned out to be 2. Further, the “Effect Bulrush” value in assay [3] came out at 2. In assay [4], the “Effect Monochoria” value stood at 5. Besides, the “Effects Blackgrass” value in assay [5] was found to be 4; in assay [11], 2. In addition, the “Effects Common lambsquarters” value in assay [6] is on record as 4. For the same compound, the “Effects Velvetleaf” value came out at 5 in assay [7] and 2 in assay [12]. The “Effects Cotton” value in assay [8] came out at 3. The “Effects Soybean” value in assay [9] is given as 3. In addition, in [10], the “Effects Barnyardgrass” value is given as 2.

As for `CCC(Oc1cccc(OC(F)(F)F)c1)c1nc2cc(C#N)c(C#N)cc2o1` (centres unmarked) [Compound 527], the “Effect Young rice plant” value in assay [1] came out at 2. Moreover, the “Effect Barnyardgrass” value in assay [2] is recorded as 4. For the same compound, the “Effect Bulrush” value in assay [3] is reported as 3. Moreover, the “Effect Flat sedge” value in assay [13] is recorded as 3. For the same compound, the “Effect Monochoria” value in [4] is 4. The “Effects Blackgrass” value was 4 in assay [5] and 2 in assay [11]. Besides, in assay [6], the “Effects Common lambsquarters” value came to 5. Further, the figures for the “Effects Velvetleaf” value in [7] and in assay [12] were 5 and 3, respectively.

As for `CCCC(Oc1ccc(F)c(C(F)(F)F)c1)c1nc2cc(C(F)(F)F)ccc2o1` (centres unmarked) [Compound 199], the “Effect Young rice plant” value in assay [1] stood at 1. In addition, the “Effect Barnyardgrass” value in assay [2] amounted to 4. Besides, the “Effect Bulrush” value in [3] came out at 5. The “Effect Monochoria” value in [4] was 5. The “Effects Blackgrass” value in assay [5] and in assay [11] was 2 throughout. The “Effects Common lambsquarters” value in [6] came to 5. In addition, the results for the “Effects Velvetleaf” value in [7] and in assay [12] were 5 and 4, respectively. For the same compound, the “Effects Cotton” value in assay [8] was 3. Also, in [9], the “Effects Soybean” value is given as 4. Also, in assay [10], the “Effects Barnyardgrass” value is reported as 2.

For the compound `CCC(Oc1cccc(C(F)(F)F)c1)c1nc2cc(F)c(C(F)(F)F)cc2o1` (centres unmarked) [Compound 471], the “Effect Barnyardgrass” value in [2] is 5. Further, in assay [3], the “Effect Bulrush” value was 2. For the same compound, the “Effect Flat sedge” value in assay [13] is 5. Also, in assay [4], the “Effect Monochoria” value came to 5. Further, the “Effects Blackgrass” value came to 5 in assay [5] and 3 in [11]. Moreover, in assay [6], the “Effects Common lambsquarters” value is given as 5. Further, the “Effects Velvetleaf” value in assay [7] came out at 5; in assay [12], 3.

In the case of `CCCC(Oc1cccc(C(F)(F)F)c1)c1nc2cc(Cl)ccc2o1` (centres unmarked) [Compound 142, 1-(5-chlorobenzoxazol-2-yl)-1-(3-(trifluoromethyl)phenoxy)butane], the “Effect Young rice plant” value in assay [1] came to 1. Besides, in [2], the “Effect Barnyardgrass” value is reported as 3. For the same compound, the “Effect Bulrush” value in assay [3] is 3. Besides, the “Effect Monochoria” value in [4] was determined as 5. The “Effects Blackgrass” value in assay [5] worked out at 5; in [11] it was 2. For the same compound, in assay [6], the “Effects Common lambsquarters” value is reported as 5. Moreover, the “Effects Velvetleaf” value in assay [7] was 5; in [12] it was 3. For the same compound, in assay [8], the “Effects Cotton” value came out at 3. In assay [9], the “Effects Soybean” value turned out to be 4. Besides, in [10], the “Effects Barnyardgrass” value was 2.

As to `CCCC(Oc1cccc(C(F)(F)F)c1)c1nc2cc(C#N)c(Cl)cc2o1` (centres unmarked) [Compound 532], the “Effect Barnyardgrass” value in [2] stood at 5. For the same compound, the “Effect Bulrush” value in assay [3] was 5. Further, the “Effect Flat sedge” value in [13] is 2. Further, the “Effect Monochoria” value in assay [4] was determined as 5. The results for the “Effects Blackgrass” value in assay [5] and in assay [11] were 5 and 4, respectively. The “Effects Common lambsquarters” value in assay [6] is listed as 5. Further, the “Effects Velvetleaf” value in [7] came to 5; in [12], 3. In addition, the “Effects Barnyardgrass” value in assay [10] is 2.

On to `CCCC(Oc1ccc(F)c(C(F)(F)F)c1)c1nc2cc(Cl)ccc2o1` (centres unmarked) [Compound 141], for which the “Effect Young rice plant” value in assay [1] amounted to 1. Moreover, the “Effect Barnyardgrass” value in [2] is 5. Moreover, the “Effect Bulrush” value in assay [3] is recorded as 5. For the same compound, the “Effect Monochoria” value in assay [4] came to 5. Also, the “Effects Blackgrass” value came out at 5 in assay [5] and 4 in [11]. Moreover, the “Effects Common lambsquarters” value in assay [6] came out at 5. In addition, the “Effects Velvetleaf” value in [7] was found to be 5; in [12] it was 4. Besides, the “Effects Cotton” value in [8] stood at 3. Moreover, the “Effects Soybean” value in [9] was 4. For the same compound, the “Effects Barnyardgrass” value in [10] was found to be 4.
